One assay has as its system Saccharopolyspora erythraea. The assay can be described thus: Ratio of Kcat to Km in 6-deoxyerythronolide B polyketide synthase thioesterase expressed in Escherichia coli.
One may read the kcat/Km as the second-order rate constant that governs catalysis at low substrate concentration. Take `CC[C@H](O)[C@@H](C)C(=O)SCCNC(C)=O`: the kcat/Km is 3.6 M⁻¹ s⁻¹. Take `CCCC(C)C(=O)SCCNC(C)=O` (stereo not drawn): the kcat/Km was 0.17 M⁻¹ s⁻¹. As to `CC[C@@H](O)[C@H](C)C(=O)SCCNC(C)=O`, the kcat/Km was found to be 0.47 M⁻¹ s⁻¹.

Take `CCC(=O)C(C)C(=O)SCCNC(C)=O` (stereo not drawn): the kcat/Km was found to be 4.2 M⁻¹ s⁻¹.

The test system of the next assay is Streptomyces natalensis. The assay can be described thus: Ratio of Kcat to Km in pimaricin thioesterase expressed in Escherichia coli.
As for `CC[C@H](O)[C@@H](C)C(=O)SCCNC(C)=O`, the kcat/Km came out at 0.02 M⁻¹ s⁻¹. In the case of `CCCC(C)C(=O)SCCNC(C)=O` (stereo not drawn), the kcat/Km turned out to be 0.24 M⁻¹ s⁻¹. As for `CC/C=C(\C)C(=O)SCCNC(C)=O`, the specificity constant (kcat/Km) was 1.3 M⁻¹ s⁻¹.

Turning to `CC[C@@H](O)[C@H](C)C(=O)SCCNC(C)=O`, the kcat/Km worked out at 0.04 M⁻¹ s⁻¹.

Values taken from ChEMBL document CHEMBL1144653, “The thioesterase domain from the pimaricin and erythromycin biosynthetic pathways can catalyze hydrolysis of simple thioester substrates” (Bioorg Med Chem Lett, 2007).
